Tests used:
Assay type in all cases: in vitro ADME
13 human UGT enzymes = experiment: UGT screening, whole panel; conditions: incubation of DWP16001 with 13 human UGT enzymes, UDPGA
Procedure: To screen for UGT enzymes responsible for glucuronidation of DWP16001, 100 μL of reaction mixtures containing 13 human cDNA-expressed UGT enzymes (1A1, 1A3, 1A4, 1A6, 1A7, 1A8, 1A9, 1A10, 2B4, 2B7, 2B10, 2B15, and 2B17) at 0.1 mg protein/mL, 5 mM UDPGA, 0.025 mg/mL alamethicin, and 25 μM DWP16001 or M1 in 50 mM Tris buffer (pH 7.4) were incubated at 37 °C for 30 min in triplicate. Reactions were stopped by adding 100 μL of ketoconazole (internal standard, 200 ng/mL) in acetonitrile, followed by vortex-mixing and centrifugation (15,000× g, 8 min, 4 °C). The supernatant (75 μL) was diluted with equal volume of 30% acetonitrile and aliquots (5 μL) were injected into an LC-MS/MS system.

CYP3A4 [1] = biological target: T1, CYP3A4 (Homo sapiens, UniProt P08684); experiment: Immunoinhibition of DWP16001 metabolism by anti-CYP3A4 antibody in human liver microsomes; conditions: 5 μM DWP16001, pooled human liver microsomes
T1 construct: purchased Corning Life Sciences
Procedure: DWP16001 (5 μM) in human liver microsomes was incubated with varying concentrations of antibody specific for human CYP3A4 (anti-CYP3A4 antibody). Prior to incubation, human liver microsomes were pretreated with anti-CYP3A4 antibody for 15 min on ice. Reactions were initiated by addition of an aliquot of NADPH-generating system; mixtures were incubated for 60 min at 37 °C. Reactions were terminated by addition of 100 µL of ice-cold ketoconazole (200 ng/mL) in acetonitrile; following centrifugation at 15,000× g for 10 min at 4 °C. Aliquots of supernatant (150 µL) was evaporated using a vacuum concentrator and re-dissolved in 100 µL of 20% methanol; 5 µL aliquots were injected into an LC-MS/MS system.

CYP2C19 = biological target: T2, CYP2C19 (Homo sapiens, UniProt P33261); experiment: Enzyme kinetics of metabolite formation in cDNA-expressed CYP2C19 supersomes
T2 construct: purchased Corning Life Sciences
Procedure: (§1) To calculate the enzyme kinetic parameters for the M1 and M2 formation from DWP16001, DWP16001 (final concentrations, 1–200 μM) was incubated with NADPH-generating system, pooled human liver microsomes (0.25 mg/mL), or human cDNA-expressed CYP3A4 or CYP2C19 supersomes (10 pmol) at 37 °C for 30 min in triplicate. Reactions were stopped by addition of 400 μL of ice-cold ketoconazole (200 ng/mL) in acetonitrile. Following vortex-mixing and centrifugation (15,000× g, 8 min, 4 °C), 75 μL aliquots of the supernatant were diluted with 75 µL of 30% acetonitrile; 5 μL aliquots were injected into an LC−MS/MS system.
(§2) Apparent kinetic parameters (Km, Vmax and n) for the formation of M1, M2, and M3 from DWP16001 by human liver microsomes, CYP3A4, or CYP2C19 were calculated as follows: the unweighted formation rates of M1, M2, and M3 over a range of DWP16001 concentrations were fitted to the Hill equation model [V = Vmax × S^n/(Km^n + S^n)] or the single enzyme model [V = Vmax × S/(Km + S)] using Enzyme Kinetics software (version 1.1 SPSS Inc., Chicago, IL, USA). In the above equations, V means the reaction velocity of the formation of M1, M2, and M3 at given concentration [S] of DWP16001, Vmax means the maximum reaction velocity, n means the Hill constant, and Km means the DWP16001 concentration at which the reaction velocity is 50% of Vmax.

human hepatocytes = experiment: Metabolic stability in human hepatocytes
Procedure: (§3) To evaluate the metabolic stability of DWP16001 in human, dog, monkey, mouse, and rat hepatocytes, pooled cryopreserved hepatocytes were carefully thawed in recovery medium and resuspended in incubation medium (Krebs–Henseleit buffer for mouse, rat, and human; William’s E media for dog and monkey) to 0.5 × 10^6 cells/mL for mouse, 0.67 × 10^6 cells/mL for rat, and 1.0 × 10^6 cells/mL for dog, monkey, and human in accordance with the manufacturer’s protocols. Then, 60-μL aliquots of these hepatocyte suspensions and an equal volume of 2 μM DWP16001 in incubation medium were mixed in 96-well plates and incubated in triplicate for 0, 30, 60, 90, 120, 180, or 240 min in a CO2 incubator at 37 °C. Reactions were stopped by addition of 120 µL of ice-cold acetonitrile to each well and the cell suspension was sonicated for 5 min at 4 °C, followed by centrifugation at 15,000× g for 10 min at 4 °C after 5 min of sonication. 80-µL aliquots of the supernatants were then vortex-mixed with 20 μL of ice-cold ketoconazole (an internal standard) in acetonitrile and analyzed by LC–tandem mass spectrometry (LC-MS/MS). The peak area ratios of DWP16001 versus internal standard at each sampling point were used for the subsequent calculation. Elimination parameters, including half-life (t1/2), intrinsic clearance (Clint), and hepatic clearance (Clhep) of DWP16001 in mouse, rat, dog, monkey, and human were calculated by the following equations [19]. (1) t1/2min=ln2/−k elimination slope (2) ClintmL/min/kg=ln2/t1/2×mL incubation/hepatocytes 10^6 cells×B×10^6 cells/g liver×A g liver/kg BW (3) ClhepmL/min/kg=Qh×Clint/Qh+Clint (4) Hepatic extraction ratio = Clhep/Qh
(§4) Here, A has values of 87.5, 40, 32, 32, and 25.7; B has values of 135, 117, 215, 120, and 139; Qh (representing hepatic blood flow) has values of 90, 55.2, 30.9, 43.4, and 20.7 mL/min/kg, for mouse, rat, dog, monkey, and human, respectively. Hepatic extraction ratio values of ≤ 0.25, 0.25–0.75, and ≥ 0.75 were regarded as low, moderate, and high, respectively.

[2] = Metabolic stability in human hepatocytes; conditions: pooled cryopreserved hepatocytes
Procedure: as §3, §4

human liver microsomes = experiment: Enzyme kinetics of metabolite formation in human liver microsomes
Procedure: as §1, §2

CYP3A4 [3] = biological target: T1, CYP3A4; experiment: Enzyme kinetics of metabolite formation in cDNA-expressed CYP3A4 supersomes
Procedure: as §1, §2

[4] = CYP2C19 supersomes, kinetic model fitted

T1 sequence (P08684 whole entry): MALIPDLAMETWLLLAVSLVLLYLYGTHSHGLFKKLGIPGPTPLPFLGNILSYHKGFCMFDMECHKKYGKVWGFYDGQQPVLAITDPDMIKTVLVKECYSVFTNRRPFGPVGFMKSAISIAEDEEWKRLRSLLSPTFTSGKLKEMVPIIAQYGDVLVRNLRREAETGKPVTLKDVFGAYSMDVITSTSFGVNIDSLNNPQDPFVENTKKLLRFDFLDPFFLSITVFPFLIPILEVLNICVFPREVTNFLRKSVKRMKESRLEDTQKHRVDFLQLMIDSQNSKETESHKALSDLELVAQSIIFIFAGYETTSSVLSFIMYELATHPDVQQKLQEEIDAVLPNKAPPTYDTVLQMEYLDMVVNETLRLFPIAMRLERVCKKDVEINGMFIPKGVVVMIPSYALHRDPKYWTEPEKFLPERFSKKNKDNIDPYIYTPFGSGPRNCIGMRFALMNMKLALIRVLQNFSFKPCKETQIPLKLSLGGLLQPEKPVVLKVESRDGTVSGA
T2 sequence (P33261 whole entry): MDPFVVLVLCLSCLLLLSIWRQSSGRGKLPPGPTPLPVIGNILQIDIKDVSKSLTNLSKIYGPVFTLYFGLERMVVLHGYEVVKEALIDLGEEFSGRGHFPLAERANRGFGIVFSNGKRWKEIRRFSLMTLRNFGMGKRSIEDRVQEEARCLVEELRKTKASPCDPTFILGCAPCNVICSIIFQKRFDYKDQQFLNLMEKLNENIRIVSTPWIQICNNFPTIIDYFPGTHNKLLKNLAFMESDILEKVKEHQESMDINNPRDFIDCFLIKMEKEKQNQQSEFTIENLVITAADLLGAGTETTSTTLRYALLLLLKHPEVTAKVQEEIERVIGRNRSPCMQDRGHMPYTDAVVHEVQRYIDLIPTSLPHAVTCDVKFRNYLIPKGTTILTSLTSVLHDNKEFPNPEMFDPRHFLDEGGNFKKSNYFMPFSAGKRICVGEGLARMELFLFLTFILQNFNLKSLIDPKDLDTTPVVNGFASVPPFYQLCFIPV

## OC[C@H]1O[C@@H](c2cc(Cc3ccc(C4CC4)cc3)c(Cl)c3c2CCO3)[C@H](O)[C@@H](O)[C@@H]1O [DWP16001, (2S,3R,4R,5S,6R)-2-(7-chloro-6-(4-cyclopropylbenzyl)-2,3-dihydrobenzofuran-4-yl)-6-(hydroxymethyl)tetrahydro-2H-pyran-3,4,5-triol]
13 human UGT enzymes
  Formation of U3 from DWP16001: not formed
CYP3A4 [1]
  Formation of M1 and M2 from DWP16001 with increasing anti-CYP3A4 antibody: decreased
CYP2C19; CYP2C19
  M3 formation from DWP16001 in enzyme kinetic analysis: not detected
CYP2C19; [4]
  M1 Formation Mode: Single enzyme
  M2 Formation Mode: Hill
Human hepatocytes
  Hepatic extraction ratio: 0.22
  Hepatic extraction ratio class: low (Hepatic extraction ratio values of ≤ 0.25)
Human hepatocytes; well-stirred model
  Clhep: 4.5 mL/min/kg
[2]
  CLint scaled at 1 μM: 5.7 mL/min/kg
[2]; 37 °C, 0-240 min
  half-life at 1 μM: 14.4 h
Human liver microsomes; HLM
  M1 Formation Vmax: 980.3 pmol/min/mg protein
  M1 Formation n (hill coefficient): 0.9176
  M2 Formation Vmax: 82.8 pmol/min/mg protein
  M2 Formation n (hill coefficient): 0.9773
Human liver microsomes; HLM, kinetic model fitted
  M1 Formation Mode: Hill
  M2 Formation Mode: Hill
Human liver microsomes; human liver microsomes
  M3 formation from DWP16001 in enzyme kinetic analysis: not detected
CYP3A4 [3]
  M3 formation kinetic model: single enzyme kinetics
CYP3A4 [3]; kinetic model fitted
  M1 Formation Mode: Hill
  M2 Formation Mode: Hill
